The record followed here is patent US20260000496A1, “MATERIALS AND METHODS FOR DRUG-INDUCED GINGIVAL OVERGROWTH” (Optimed Technology, Inc., priority 2019, published 2026).

Common to all, as to type: in vivo, C57BL/6 mice
Assay [1] deals with Myd88. The experiment in a line: Mice study #2: Myd88 immunostaining of gingival tissue. The settings on record: preventive and active treatment groups consistent. The method, then:
(§1) Mice study #2: Validation study for preventive and active treatment for DIGO. […] One set of these mice were used as a control disease group (FIG. 23A) while the other group was treated with folic acid (gel and in drinking water) (FIG. 23B). In the prevention and treatment group, folic acid (10 μg/ml) (Sigma-Aldrich, St. Louis MO) was included in the drinking water from the time of suture placement until end of the study (14 days). Additionally, gel applications were repeated daily until the end of the study (14 days). The four groups in this study were: • 1. Control group (n=2): no interventions were performed • 2.
(§2) Histopathology and Immunohistochemistry. Mice mandibles were fixed in 10% formaldehyde for overnight at 4° C. on the shaker with 45 rpm and then the solutions were replaced with 70% ethanol. The tissues were decalcified with 10% ethylenediaminetetraacetic acid (EDTA) for 1 week and were dehydrated through graded ethanol, cleared with xylene, and embedded in paraffin. 4 μm serial sections were cut in a buccal-lingual direction and stained with Hematoxylin and Eosin (HE) and observed under light microscopy for histomorphological evaluations.
(§3) For immunohistochemistry, unstained sections were deparaffinized in xylene for 10 minutes and then transferred to ethanol for 20 minutes. […]

For another assay, the system named is phospho-p65. The assay can be described thus: Mice study #2: phospho-p65 immunoblotting of gingival samples. The settings on record: pattern as for Myd88 (disease higher than control and treatment). The method, then:
(§4) Western blot analysis. Cells were seeded in 60 mm plates with a density of 5×10^5 cells per plate and washed briefly with Dulbecco's phosphate-buffered saline (Gibco, Waltham, MA, USA). Whole cell lysates were prepared using RIPA lysis buffer containing protease inhibitor cocktail (Sigma-Aldrich). Total protein concentration was determined using the BCA reagent (Pierce, Waltham, MA, USA). 20 μg of total protein were resolved on sodium dodecyl sulfate-polyacrylamide gel electrophoresis and transferred to polyvinylidenedifluoride membrane and immunoblotted. The blots were incubated for 1 h in 1% bovine serum albumin (BSA) (Sigma-Aldrich) to block the non-specific bindings followed by over-night incubation in primary antibodies (MyD88 and pP65 from Cell Signaling Technology, and human LITAF ThermoFisher Sigma) at 4° C. on shaker. Next day, blots were washed for three times (10 min each) in Tris-buffered saline containing 1% Tween20 (TBST) followed by incubation with secondary antibody (Goat anti-rabbit IgG HRP) with 1:10,000 dilution for 1 h. […] The band intensities were quantified using software ImageJ (NIH, USA) and relative protein levels were normalized by β-actin (Cell Signaling). […] The band intensities were measured by the software ImageJ (NIH, USA), and relative protein levels were normalized by β-actin.
(In western blotting, separated proteins are transferred to a membrane and probed.)

Another assay relates to NFκB. The experiment in a line: Mice study #2: NFκB immunostaining of gingival tissue. The method, then: as §1, §2, §3
Assay [2] relates to Myd88. The experiment in a line: Mice study #2: Myd88 immunoblotting of gingival samples. Particulars: three mice per group. The method, then: as §4

The structures appear in SMILES notation.

For the compound `Nc1nc2ncc(CNc3ccc(C(=O)N[C@@H](CCC(=O)O)C(=O)O)cc3)nc2c(=O)[nH]1` [folic acid], the “epithelial Myd88 expression, disease group relative to folic acid-treated group” value with Myd88 [1] is “significantly higher compared to both treated and control groups”. Also, in the assay on phospho-p65, the “phospho p65 expression, pattern across groups” value is reported as “a similar pattern”. The “NFκB epithelial expression, control, disease and folic acid-treated groups” value with NFκB was “higher in the control group followed by the disease group”. In addition, the “Myd88 expression, disease group relative to control and folic acid treatment group” value in the assay with Myd88 [2] is “higher Myd88 expressions compared to the control and treatment group”.
